According to US5250561A, “Tetrahydroindazole, tetrahydrocyclopentapyrazole, and hexahydrocycloheptapyrazole compounds and their use as HMG-COA reductase inhibitors” (Ortho Pharmaceutical Corporation, priority 1992, dated 1993):
pIC50: −log10 of the molar value. Structures can show the parent of a compound that is named as a salt.

Experiments:
Hep-G2 cells = test: Cell Culture Cholesterol Biosynthesis Assay; format: cell-based; settings: Homo sapiens, racemic mixture
Method: When the cells were 2/3 confluent, they were fed MEM containing Earles salts and delipidated serum protein (DLP) at 5 mg/mL and then incubated for a period of 24 h. DLP was prepared according to the procedure of Rothblat, et. al. ([…]., Howard, B. V. In Vitro (Rockville), 12, 1976, 554-557). The DLP medium was then removed and 3.3 mL of media containing the drug indicated was added. […] Fatty acids were extracted and digitonin precipitable sterols were recovered according the procedure of Kanduch and Saucier (Kandutch, A. A., Saucier, S. E. Journal of Biological Chemistry, 244, 1969, 2299-2305). To adjust for cell number per flask, the cholesterol synthesized was normalized to the fatty acids synthesized and results were expressed as percent inhibition vs. control.

HMG-CoA reductase = test: HMG-CoA Reductase Isolation And Assay (ammonium sulfate precipitated enzyme from rat liver); format: biochemical, male Wistar rats; settings: racemic mixture
Method: Livers were harvested from male Wistar rats (250 g) following a five day feeding with powdered chow containing 2% cholestyramine. Ammonium sulfate precipitated HMG-CoA reductase was prepared from these livers according to the method of Heller, et. al. (Heller, R. A. Shrewsbury, M. A. Journal of Biological Chemistry, 251, 1976, 3815-3822). HMG-CoA reductase activity was measured using a modification of the procedure of Edwards, et. al. (Edwards, P. A., Lemongello, […]. Journal of Lipid Research, 20, 1979, 40-46). The effects of compounds on HMG-CoA reductase activity were determined by combining the compound with the enzyme and preincubating for 10 minutes prior to addition of the substrate […].

pIC50 (HMG-CoA reductase; Table III) | pIC50 (Hep-G2 cells; HepG2, Table III) | Structure (SMILES) | further results
– | – | CCOC(=O)C[C@H](O)C[C@H](O)/C=C/c1c2c(nn1-c1ccc(F)cc1)C(Cc1ccccc1)CCC2 (mixture of isomers) [Compound 47, Ethyl (E)-(3RS,5SR)-7-[7-benzyl-2-(4-fluorophenyl)-4,5,6,7-tetrahydro-2H-indazol-3-yl]-3,5-dihydroxy-6-heptenoate] | pIC50 (Hep-G2 cells; HepG2, Table IV): 6.54; pIC50 (HMG-CoA reductase; Table IV): 6.92
– | – | O=C1C[C@H](O)C[C@@H](/C=C/c2c3c(nn2-c2ccc(F)cc2)C(Cc2ccccc2)CCC3)O1 (mixture of isomers) [Compound 79, (E)-(4RS,6SR)-6-[2-[7-Benzyl-2-(4-fluorophenyl)-4,5,6,7-tetrahydro-2H-indazol-3-yl]ethenyl]-4-hydroxy-3,4,5,6-tetrahydro-2H-pyran-2-one] | pIC50 (Hep-G2 cells; HepG2, Table V): 6.59; pIC50 (HMG-CoA reductase; Table V): 6.12
– | – | O=C(O)C[C@H](O)C[C@H](O)/C=C/c1nn(-c2ccc(F)cc2)c2c1CCC2 (relative stereo) [Compound 2] | pIC50 (HMG-CoA reductase; Table II): 4.00
– | – | O=C(O)C[C@H](O)C[C@H](O)/C=C/c1nn(Cc2ccc(F)cc2)c2c1CCCCC2 (relative stereo) [Compound 9] | pIC50 (HMG-CoA reductase; Table II): 4.00
5.29 | – | O=C(O)C[C@H](O)C[C@H](O)/C=C/c1c2c(nn1-c1ccc(F)cc1)CCC2 (relative stereo) [Compound 10] | –
4.89 | – | O=C(O)C[C@H](O)C[C@H](O)/C=C/c1c2c(nn1-c1ccc(F)cc1)-c1ccccc1CC2 (relative stereo) [Compound 22] | –
5.60 | – | O=C(O)C[C@H](O)C[C@H](O)/C=C/c1c2c(nn1-c1ccc(F)cc1)CCCC2 (relative stereo) [Compound 25] | –
5.06 | – | O=C(O)C[C@H](O)C[C@H](O)/C=C/c1c2c(nn1-c1ccc(Cl)cc1)CCCC2 (relative stereo) [Compound 26] | –
5.57 | – | C/C(=C\c1c2c(nn1-c1ccc(F)cc1)CCCC2)[C@@H](O)C[C@@H](O)CC(=O)O (relative stereo) [Compound 27] | –
5.68 | – | O=C(O)C[C@H](O)C[C@H](O)/C=C/c1c2c(nn1-c1ccc(F)cc1)-c1ccccc1CCC2 (relative stereo) [Compound 36] | –
5.42 | – | O=C(O)C[C@H](O)C[C@H](O)/C=C/c1c2c(nn1-c1ccc(F)cc1)CCCCC2 (relative stereo) [Compound 37] | –
4.64 | – | O=C(O)C[C@H](O)C[C@H](O)/C=C/c1c2c(nn1Cc1ccc(F)cc1)CCCCC2 (relative stereo) [Compound 38] | –
– | – | O=C1C[C@H](O)C[C@@H](/C=C/c2c3c(nn2-c2ccc(F)cc2)CCCC3)O1 (relative stereo) [Compound 83] | pIC50 (HMG-CoA reductase; Table V): 5.05
8.57 | 6.62 | O=C(O)C[C@H](O)C[C@H](O)/C=C/c1c2c(nn1-c1ccc(F)cc1)C(Cc1ccc(-c3ccccc3)cc1)CCC2 (stereo partly drawn) [Compound 1, (E)-(3RS,5SR)-7-[7-[(1,1'-Biphenyl)-4-ylmethyl]-2-(4-fluorophenyl)-4,5,6,7-tetrahydro-2H-indazol-3-yl]-3,5-dihydroxy-6-heptenoic acid.Sodium salt.Dihydrate] | –
– | – | O=C(O)C[C@H](O)C[C@H](O)/C=C/c1nn(-c2ccc(F)cc2)c2c1CCCC2Cc1ccc(F)cc1 (stereo partly drawn) [Compound 3] | pIC50 (Hep-G2 cells; HepG2, Table II): 4.57; pIC50 (HMG-CoA reductase; Table II): 4.51
– | – | O=C(O)C[C@H](O)C[C@H](O)/C=C/c1nn(-c2ccc(F)cc2)c2c1CCCC2C1CCCCC1 (stereo partly drawn) [Compound 4] | pIC50 (HMG-CoA reductase; Table II): 4.33
– | – | CCC1CCCc2c(/C=C/[C@@H](O)C[C@@H](O)CC(=O)O)nn(-c3ccc(F)cc3)c21 (stereo partly drawn) [Compound 5] | pIC50 (HMG-CoA reductase; Table II): 4.46
– | – | CC1CCCc2c(/C=C/[C@@H](O)C[C@@H](O)CC(=O)O)nn(-c3ccc(F)cc3)c21 (stereo partly drawn) [Compound 6] | pIC50 (HMG-CoA reductase; Table II): 4.00
– | – | O=C(O)C[C@H](O)C[C@H](O)/C=C/c1nn(-c2ccc(F)cc2)c2c1CCCC2CCc1ccccc1 (stereo partly drawn) [Compound 7] | pIC50 (Hep-G2 cells; HepG2, Table II): < 5.00
– | – | O=C(O)C[C@H](O)C[C@H](O)/C=C/c1nn(-c2ccc(F)cc2)c2c1CCCC2CC=Cc1ccccc1 (stereo partly drawn) [Compound 8] | pIC50 (HMG-CoA reductase; Table II): 5.52
7.59 | 6.43 | O=C(O)C[C@H](O)C[C@H](O)/C=C/c1c2c(nn1-c1ccc(F)cc1)C(Cc1cccc3ccccc13)CCC2 (stereo partly drawn) [Compound 11] | –
7.00 | 5.89 | O=C(O)C[C@H](O)C[C@H](O)/C=C/c1c2c(nn1-c1ccc(F)cc1)C(Cc1ccccc1Cl)CCC2 (stereo partly drawn) [Compound 12] | –
8.25 | 6.48 | O=C(O)C[C@H](O)C[C@H](O)/C=C/c1c2c(nn1-c1ccc(F)cc1)C(Cc1ccc3ccccc3c1)CCC2 (stereo partly drawn) [Compound 13] | –
7.32 | 5.96 | COc1cccc(CC2CCCc3c2nn(-c2ccc(F)cc2)c3/C=C/[C@@H](O)C[C@@H](O)CC(=O)O)c1 (stereo partly drawn) [Compound 14] | –
6.77 | 5.41 | COc1ccc(CC2CCCc3c2nn(-c2ccc(F)cc2)c3/C=C/[C@@H](O)C[C@@H](O)CC(=O)O)cc1OC (stereo partly drawn) [Compound 15] | –

pIC50 (HMG-CoA reductase; Table III) | pIC50 (Hep-G2 cells; HepG2, Table III) | Structure (SMILES) | further results
7.24 | 6.44 | O=C(O)C[C@H](O)C[C@H](O)/C=C/c1c2c(nn1-c1ccc(F)cc1)C(Cc1ccc(Cl)cc1)CCC2 (stereo partly drawn) [Compound 16] | –
6.82 | 6.15 | O=C(O)C[C@H](O)C[C@H](O)/C=C/c1c2c(nn1-c1ccc(F)cc1)C(Cc1ccc(F)cc1)CCC2 (stereo partly drawn) [Compound 17] | –
7.85 | 6.59 | CC(C)c1ccc(CC2CCCc3c2nn(-c2ccc(F)cc2)c3/C=C/[C@@H](O)C[C@@H](O)CC(=O)O)cc1 (stereo partly drawn) [Compound 18] | –
7.72 | 6.89 | Cc1ccc(CC2CCCc3c2nn(-c2ccc(F)cc2)c3/C=C/[C@@H](O)C[C@@H](O)CC(=O)O)cc1 (stereo partly drawn) [Compound 19] | –
7.85 | 6.34 | COc1ccc(CC2CCCc3c2nn(-c2ccc(F)cc2)c3/C=C/[C@@H](O)C[C@@H](O)CC(=O)O)cc1 (stereo partly drawn) [Compound 20] | –
7.80 | 6.87 | CC(C)(C)c1ccc(CC2CCCc3c2nn(-c2ccc(F)cc2)c3/C=C/[C@@H](O)C[C@@H](O)CC(=O)O)cc1 (stereo partly drawn) [Compound 21] | –
5.11 | – | O=C(O)C[C@H](O)C[C@H](O)/C=C/c1c2c(nn1-c1ccc(F)cc1)C(C1CCCCC1)CCC2 (stereo partly drawn) [Compound 23] | –
6.00 | – | CCC1CCCc2c1nn(-c1ccc(F)cc1)c2/C=C/[C@@H](O)C[C@@H](O)CC(=O)O (stereo partly drawn) [Compound 24] | –
5.96 | – | CC1CCCc2c1nn(-c1ccc(F)cc1)c2/C=C/[C@@H](O)C[C@@H](O)CC(=O)O (stereo partly drawn) [Compound 28] | –
5.89 | – | CCCC1CCCc2c1nn(-c1ccc(F)cc1)c2/C=C/[C@@H](O)C[C@@H](O)CC(=O)O (stereo partly drawn) [Compound 29] | –
5.51 | – | O=C(O)C[C@H](O)C[C@H](O)/C=C/c1c2c(nn1-c1ccc(F)cc1)C(c1ccccc1)CCC2 (stereo partly drawn) [Compound 30] | –
7.07 | 6.66 | O=C(O)C[C@H](O)C[C@H](O)/C=C/c1c2c(nn1-c1ccc(F)cc1)C(Cc1ccccc1)CCC2 (stereo partly drawn) [Compound 31] | –
6.48 | 5.76 | O=C(O)C[C@H](O)C[C@H](O)/C=C/c1c2c(nn1-c1ccc(F)cc1)C(CCc1ccccc1)CCC2 (stereo partly drawn) [Compound 32] | –
6.80 | 5.96 | O=C(O)C[C@H](O)C[C@H](O)/C=C/c1c2c(nn1-c1ccc(F)cc1)C(CCCc1ccccc1)CCC2 (stereo partly drawn) [Compound 33] | –
7.49 | 5.89 | O=C(O)C[C@H](O)C[C@H](O)/C=C/c1c2c(nn1-c1ccc(F)cc1)C(CC=Cc1ccccc1)CCC2 (stereo partly drawn) [Compound 34] | –
6.00 | – | CCC(C)C1CCCc2c1nn(-c1ccc(F)cc1)c2/C=C/[C@@H](O)C[C@@H](O)CC(=O)O (stereo partly drawn) [Compound 35] | –
– | – | COC(=O)C[C@H](O)C[C@H](O)/C=C/c1c2c(nn1-c1ccc(F)cc1)C(Cc1ccc3ccccc3c1)CCC2 (stereo partly drawn) [Compound 42] | pIC50 (Hep-G2 cells; HepG2, Table I): 6.44
– | – | COC(=O)C[C@H](O)C[C@H](O)/C=C/c1c2c(nn1-c1ccc(F)cc1)C(Cc1ccc(C(C)C)cc1)CCC2 (stereo partly drawn) [Compound 43] | pIC50 (Hep-G2 cells; HepG2, Table I): 6.92
– | – | CCOC(=O)C[C@H](O)C[C@H](O)/C=C/c1c2c(nn1-c1ccc(F)cc1)C(Cc1cccc(OC)c1)CCC2 (stereo partly drawn) [Compound 58] | pIC50 (Hep-G2 cells; HepG2, Table IV): 6.10; pIC50 (HMG-CoA reductase; Table IV): 6.68
– | – | CCOC(=O)C[C@H](O)C[C@H](O)/C=C/c1c2c(nn1-c1ccc(F)cc1)C(Cc1ccc(Cl)cc1)CCC2 (stereo partly drawn) [Compound 60] | pIC50 (Hep-G2 cells; HepG2, Table IV): 6.34
– | – | CCOC(=O)C[C@H](O)C[C@H](O)/C=C/c1c2c(nn1-c1ccc(F)cc1)C(Cc1ccc(C)cc1)CCC2 (stereo partly drawn) [Compound 62] | pIC50 (Hep-G2 cells; HepG2, Table IV): 6.70; pIC50 (HMG-CoA reductase; Table IV): 7.15
– | – | CCOC(=O)C[C@H](O)C[C@H](O)/C=C/c1c2c(nn1-c1ccc(F)cc1)C(Cc1ccc(C(C)(C)C)cc1)CCC2 (stereo partly drawn) [Compound 64] | pIC50 (HMG-CoA reductase; Table IV): 7.52
– | – | CCC(CC)CC1CCCc2c1nn(-c1ccc(F)cc1)c2/C=C/[C@@H]1C[C@@H](O)CC(=O)O1 (stereo partly drawn) [Compound 80] | pIC50 (HMG-CoA reductase; Table V): 4.54
– | – | O=C1C[C@H](O)C[C@@H](/C=C/c2c3c(nn2-c2ccc(F)cc2)C(Cc2ccc4ccccc4c2)CCC3)O1 (stereo partly drawn) [Compound 81] | pIC50 (Hep-G2 cells; HepG2, Table V): 6.41
– | – | CC(C)(C)c1ccc(CC2CCCc3c2nn(-c2ccc(F)cc2)c3/C=C/[C@@H]2C[C@@H](O)CC(=O)O2)cc1 (stereo partly drawn) [Compound 82] | pIC50 (Hep-G2 cells; HepG2, Table V): 6.64; pIC50 (HMG-CoA reductase; Table V): 7.15
